Series [1] relates to B16F10 cells. Put plainly: Transfection of pEGFP-C1 reporter plasmid into B16F10 cells, GFP expression by flow cytometry. The format is cell-based, mouse. On the procedure:
(§1) The corresponding cationic lipid (1 mM in methanol) were mixed in different proportions with DOPE (10 mg/mL in chloroform) and the organic solvent removed by evaporation in an oven (37° C.) overnight. The resultant thin films were then hydrated with PBS. The solutions were vortexed (10-20 s) and incubated at ambient temperature for 20 min. Plasmid DNA or siRNA solution (0.04 mg/mL in PBS or another isotonic solution) was subsequently added and the solution vortexed (10-20 s). The lipoplexes were incubated at room temperature for 20 min before being used.
(§2) Human HeLa cells were grown in RPMI supplemented with 4 mM glutamine, 10% FCS and 100 units/ml penicillin/streptomycin (RPMI-CM) until 80% confluence. HEK293 and B16F10 cells were grown in DMEM supplemented with 4 mM glutamine, 10% FCS and 100 units/ml penicillin/streptomycin (DMEM-CM) until 80% confluence. Cells were then suspended using trypsin/EDTA and counted. 2×10^4 cells in 150 μL of media per well were seeded in 96 well plates and incubated overnight. The day afterwards, the different lipoplex formulations were added. Each experiment was performed in quadruplicate, using Effectene® Transfection Reagent (Qiagen), Lipofectamine™ 2000 (Invitrogen) and Fugene (Roche) as positive controls and untreated cells as negative controls. After two days incubation at 37° C. and 5% CO2 (the change of media after transfection was not necessary), the green fluorescent protein (GFP) expression, as a consequence of transfecting the pEGFP-C1, was evidenced using a fluorescent microscope (Leica) and measured by flow cytometry. For the flow cytometry analysis, cells were washed twice with PBS, detached with trypsin/EDTA, harvested with 2% ferum bovine serum (FBS) in PBS, centrifuged and resuspended with 2% FBS in PBS and analyzed using a BD FACSaria flow cytometer. Transfection efficiency was measured as percentage of transfected cells.
(§3) Reagents that obtained greater than 50% transfection were also analyzed against HEK293 and B16F10 cell lines. Transfection results (+ percentages of transfection between 5-25%; ++ percentages of transfection between 25-50%; N.D. not determined). MTT toxicity assay results are indicated between brackets with 100% being cell viability of untreated cells.
For orientation: In flow cytometry, cells or beads pass a laser one at a time.

Another series has as its system mice. Put plainly: In vivo transfection of luciferase-expressing plasmid (pLux) in mice, luminescence imaging. On the procedure:
Experiments were performed to transfect a luciferase-expressing plasmid (pLux) by intravenous injection via the vein tail of mice: three transfected with pLux complexed with compound 29a and three (control) with naked pLux. Two days after instillation, firefly luciferin was administrated intraperitoneally and the mice imaged using an IVIS Spectrum.
The mouse depicted on the left was transfected with naked plasmid; the mouse the right was transfected with plasmid complexed with compound 29a. Mice (n=3, per experiment) were anaesthetised and intubated following standard protocols. 16 μg of a luciferase-reporter plasmid were used per mouse. […] Firefly luciferin (15 mg/kg) was administered intraperitoneally to the anesthetized mice 15 min before scanning for luminescence. Imaging was performed on the IVIS Spectrum (Caliper LS) with large binning, open filter for 10 min.

Series [2] relates to B16F10 cells. In words: MTT cell viability assay of transfected B16F10 cells. The format is cell-based, mouse. The conditions noted are these: 100% being cell viability of untreated cells; 24 h after addition of transfection agents. The procedure:
as §3
(§4) Twenty-four hours after the addition of transfection agents, cell viability was measured using an MTT cell proliferation assay (LGC Promochem, Middlesex, UK), which was performed according to the manufacturer's instructions. Absorbance was read at 570 nm. […] The comparative data obtained with lipids 28a, 29a, 30a and 31a of the invention, Lipofectamine™ 2000, Fugene and Effectene® Transfection Reagent are shown between brackets in Table 2.
For orientation: Formazan colour is commonly taken as a measure of viable cells.

Series [3] has as its system HeLa cells. Put plainly: Transfection of fluorescein-labelled siRNA (siGLO) into HeLa cells, flow cytometry. In kind it is cell-based, human. The conditions noted are these: 24 h incubation. The procedure: as §1
Cells were suspended using trypsin/EDTA and counted. 2×10^4 cells in 150 μL of RPMI-CM per well were seeded in 96-well plates and incubated overnight. The day afterwards, the different lipoplex formulations formulated with siGLO (fluorescein-labeled siRNA that localizes within cell nuclei (Dharmacon)) and added to the cells. […] After 24 h incubation at 37° C. and 5% CO2 (change of media after transfection was not necessary), the green fluorescence emitted by intracellular siGLO was imaged under microscope. […] For the flow cytometry analysis, cells were washed twice with PBS, detached with trypsin/EDTA, harvested with 2% FBS in PBS, centrifuged and resuspended with 2% FBS in PBS and analyzed using a BD FACSaria flow cytometer.

The subject of series [4] is HEK293 cells. In words: Transfection of pEGFP-C1 reporter plasmid into HEK293 cells, GFP expression by flow cytometry. In kind it is cell-based, human. The procedure: as §1, §2, §3
The test system of series [5] is HeLa cells. In words: Transfection of pEGFP-C1 reporter plasmid into HeLa cells, GFP expression by flow cytometry. In kind it is cell-based, human. The conditions noted are these: for Transfection efficiency (percentage of transfected cells), HeLa / Transfection results (percentage of transfected cells), HeLa: HeLa cells 48 h after transfection with reporter plasmid, flow cytometry; for Transfection compared with the positive controls: N/P ratio 3, 1:1 mol mixture with DOPE, controls Effectene, Lipofectamine 2000, Fugene. On the procedure:
as §1, §2, §3

The test system of series [6] is HeLa cells. In words: MTT cell viability assay of transfected HeLa cells. The format is cell-based, human. The conditions noted are these: 100% being cell viability of untreated cells; 24 h after addition of transfection agents. On the procedure:
as §3, §4

Series [7] concerns HEK293 cells. In words: MTT cell viability assay of transfected HEK293 cells. The format is cell-based, human. The conditions noted are these: 100% being cell viability of untreated cells; 24 h after addition of transfection agents. On the procedure: as §3, §4

With `CCCCCCCCCCCCCCCC(=O)NCCN(CCNC(=O)CCCCCCCCCCCCCCC)C(=O)/C=C\C(=O)N[C@@H](CCCNC(=N)N)C(=O)N[C@@H](CCCNC(=N)N)C(N)=O.O=C(O)C(F)(F)F.O=C(O)C(F)(F)F` [Compound A2-Sp2-P], the “Transfection efficiency (percentage of transfected cells), B16F10” value in the series on B16F10 cells [1] turned out to be 78%. In the series on mice (mice monitored on a daily basis, n=3 per experiment), the “Behaviour of mice during the study” value is listed as “behaved normally”. Besides, the “Luminescence after in vivo transfection of pLux” value in the series on mice (mice, intravenous injection via tail vein, 16 μg plasmid per mouse, imaged 48 hours after transfection) is “Positive luminescence was detected”. The “Location of highest luminescence signal” value in the series on mice (mice, intravenous injection via tail vein, 48 hours after transfection) is “at the point of injection”. Besides, the “MTT toxicity assay, cell viability (between brackets), B16F10” value (shortened to “MTT toxicity assay … B16F10”) with B16F10 cells [2] was 99%. Further, the “Cells fluorescently labelled after siRNA transfection” value in the series with HeLa cells [3] is “over 96%”. In addition, the “Transfection efficiency (percentage of transfected cells), HEK293” value in the series on HEK293 cells [4] is recorded as 90%. In addition, in the series on HeLa cells [5], the “Transfection efficiency (percentage of transfected cells), HeLa” value is 86% and the “Transfection compared with the positive controls” value is “more effectively than the positive controls”. Further, the “MTT toxicity assay, cell viability (between brackets), HeLa” value (from here on “MTT toxicity assay, cell viability … HeLa”) in the series on HeLa cells [6] was 99%. Also, the “MTT toxicity assay, cell viability (between brackets), HEK293” value (shortened to “MTT toxicity assay … HEK293”) in the series with HEK293 cells [7] is on record as 98%.
On to `CCCCCCCCCCCCCCCC(=O)NCCN(CCNC(=O)CCCCCCCCCCCCCCC)C(=O)CCC(=O)N[C@@H](CCCNC(=N)N)C(=O)N[C@@H](CCCNC(=N)N)C(=O)N[C@@H](CCCNC(=N)N)C(N)=O.O=C(O)C(F)(F)F.O=C(O)C(F)(F)F.O=C(O)C(F)(F)F` [Compound A3-Sp1-P], for which the “Transfection efficiency (percentage of transfected cells), B16F10” value in the series with B16F10 cells [1] is given as 56%. Further, in the series with B16F10 cells [2], the “MTT toxicity assay … B16F10” value is 89%. Also, the “Transfection efficiency (percentage of transfected cells), HEK293” value in the series on HEK293 cells [4] is recorded as 84%. The “Transfection efficiency (percentage of transfected cells), HeLa” value with HeLa cells [5] was 75%. The “MTT toxicity assay, cell viability … HeLa” value in the series with HeLa cells [6] came out at 93%. In addition, the “MTT toxicity assay … HEK293” value with HEK293 cells [7] is recorded as 95%.
In the case of `CCCCCCCC/C=C\CCCCCCCC(=O)NCCN(CCNC(=O)CCCCCCC/C=C\CCCCCCCC)C(=O)CCC(=O)N[C@@H](CCCNC(=N)N)C(=O)N[C@@H](CCCNC(=N)N)C(N)=O.O=C(O)C(F)(F)F.O=C(O)C(F)(F)F` [Compound A2-Sp1-O], the “Transfection results (percentage of transfected cells), HeLa” value in the series with HeLa cells [5] was “++ (percentages of transfection between 25-50%)”.
`CCCCCCCCCCCCCCCC(=O)NCCN(CCNC(=O)CCCCCCCCCCCCCCC)C(=O)CCC(=O)N[C@@H](CCCNC(=N)N)C(=O)N[C@@H](CCCNC(=N)N)C(N)=O.O=C(O)C(F)(F)F.O=C(O)C(F)(F)F` [Compound A2-Sp1-P]: the “Transfection efficiency (percentage of transfected cells), B16F10” value with B16F10 cells [1] stood at 74%. In addition, in the series on B16F10 cells [2], the “MTT toxicity assay … B16F10” value was determined as 98%. Besides, the “Transfection efficiency (percentage of transfected cells), HEK293” value with HEK293 cells [4] is 89%. Also, in the series with HeLa cells [5], the “Transfection efficiency (percentage of transfected cells), HeLa” value came out at 85% and the “Transfection compared with the positive controls” value is reported as “more effectively than the positive controls”. In addition, the “MTT toxicity assay, cell viability … HeLa” value in the series on HeLa cells [6] was found to be 99%. Besides, the “MTT toxicity assay … HEK293” value with HEK293 cells [7] amounted to 97%.
Turning to `CCCCCCCCCCCCCCCCCCCC(=O)NCCCN(CCCNC(=O)CCCCCCCCCCCCCCCCCCC)C(=O)CCC(=O)N[C@@H](CCCNC(=N)N)C(N)=O.O=C(O)C(F)(F)F` [Compound A1-Sp3-A], in the series with HeLa cells [5], the “Transfection results (percentage of transfected cells), HeLa” value was “+ (percentages of transfection between 5-25%)”.
`CCCCCCCCCCCCCCCCCC(=O)NCCN(CCNC(=O)CCCCCCCCCCCCCCCCC)C(=O)/C=C\C(=O)N[C@@H](CCCNC(=N)N)C(=O)N[C@@H](CCCNC(=N)N)C(=O)N[C@@H](CCCNC(=N)N)C(N)=O.O=C(O)C(F)(F)F.O=C(O)C(F)(F)F.O=C(O)C(F)(F)F` [Compound A3-Sp2-S]: the “Transfection results (percentage of transfected cells), HeLa” value in the series with HeLa cells [5] is on record as “++ (percentages of transfection between 25-50%)”.
The same measure, in the same setting: to `CCCCCCCCCCCCCCCCCCCC(=O)NCCN(CCNC(=O)CCCCCCCCCCCCCCCCCCC)C(=O)/C=C\C(=O)N[C@@H](CCCNC(=N)N)C(=O)N[C@@H](CCCNC(=N)N)C(=O)N[C@@H](CCCNC(=N)N)C(N)=O.O=C(O)C(F)(F)F.O=C(O)C(F)(F)F.O=C(O)C(F)(F)F` [Compound A3-Sp2-A] belongs “+ (percentages of transfection between 5-25%)”.
As for `CCCCCCCCCCCCCCCC(=O)NCCN(CCNC(=O)CCCCCCCCCCCCCCC)C(=O)/C=C\C(=O)N[C@@H](CCCNC(=N)N)C(=O)N[C@@H](CCCNC(=N)N)C(=O)N[C@@H](CCCNC(=N)N)C(N)=O.O=C(O)C(F)(F)F.O=C(O)C(F)(F)F.O=C(O)C(F)(F)F` [Compound A3-Sp2-P], in the series on B16F10 cells [1], the “Transfection efficiency (percentage of transfected cells), B16F10” value was determined as 69%. For the same compound, the “MTT toxicity assay … B16F10” value with B16F10 cells [2] worked out at 93%. For the same compound, in the series with HEK293 cells [4], the “Transfection efficiency (percentage of transfected cells), HEK293” value is recorded as 80%. The “Transfection efficiency (percentage of transfected cells), HeLa” value in the series with HeLa cells [5] turned out to be 70%. Further, the “MTT toxicity assay, cell viability … HeLa” value in the series with HeLa cells [6] turned out to be 92%. The “MTT toxicity assay … HEK293” value in the series on HEK293 cells [7] is given as 96%.
Turning to `CCCCCCCCCCCCCCCCCCCCCCCC(=O)NCCCN(CCCNC(=O)CCCCCCCCCCCCCCCCCCCCCCC)C(=O)/C=C\C(=O)N[C@@H](CCCNC(=N)N)C(=O)N[C@@H](CCCNC(=N)N)C(=O)N[C@@H](CCCNC(=N)N)C(N)=O.O=C(O)C(F)(F)F.O=C(O)C(F)(F)F.O=C(O)C(F)(F)F` [Compound A3-Sp4-L], in the series on HeLa cells [5], the “Transfection results (percentage of transfected cells), HeLa” value is “++ (percentages of transfection between 25-50%)”.
`CCCCCCCC/C=C\CCCCCCCC(=O)NCCCN(CCCNC(=O)CCCCCCC/C=C\CCCCCCCC)C(=O)CCC(=O)N[C@@H](CCCNC(=N)N)C(=O)N[C@@H](CCCNC(=N)N)C(N)=O.O=C(O)C(F)(F)F.O=C(O)C(F)(F)F` [Compound A2-Sp3-O]: the “Transfection results (percentage of transfected cells), HeLa” value with HeLa cells [5] was “++ (percentages of transfection between 25-50%)”.
Still for that read-out and setting: as for `CCCCCCCCCCCCCCCCCCCC(=O)NCCN(CCNC(=O)CCCCCCCCCCCCCCCCCCC)C(=O)CCC(=O)N[C@@H](CCCNC(=N)N)C(=O)N[C@@H](CCCNC(=N)N)C(N)=O.O=C(O)C(F)(F)F.O=C(O)C(F)(F)F` [Compound A2-Sp1-A], the entry is “+ (percentages of transfection between 5-25%)”.

The values are drawn from patent publication US8759104B2, “Cationic lipids” (The University Court of the University of Edinburgh, priority 2010, dated 2014).
